According to patent US5508450A, “Benzopyran derivatives” (Ono Pharmaceutical Co., Ltd., priority 1989, dated 1996):
Counter-ions that a name gives are not always drawn.

Test system: Lysozyme (dimer formation with fructose)
Test: Inhibitory activity on Maillard reaction: formation of lysozyme dimer (lysozyme + fructose, SDS-PAGE, densitometer)
Assay type: biochemical
Settings: lysozyme 10 mg/ml, fructose 100 mM, 0.2M sodium phosphate buffer pH 7.4, 37° C., 3 days
Procedure: The inhibitory activity on Maillard reaction of the compounds of the present invention has confirmed by the screening system mentioned below. Lysozyme (10 mg/ml) and fructose (100 mM) were dissolved in 0.2M sodium phosphatic buffer solution (PH 7.4). The solution was incubated at a temperature of 37° C. for 3 days. A given volume of the reaction solution was separated using SDS-PAGE by the electrophoresis. After the electrophoresis, the SDS-PAGE was dyed by 0.2% Coomassie Brilliant Blue R-250 and then the dimer was determined by densitometer. The compounds of the present invention were added before incubation and the inhibitory activity of them against the formation of the dimer was examined in various concentrations and IC50 values were calculated.

| SMILES | IC50 |
| --- | --- |
| COc1c(O)c(C)c2c(c1OC)OC(C)(CCOC(=O)c1ccc(NC(=N)N)cc1)CC2 (centres unmarked) [1 (d), 2-(2,5-dimethyl-6-hydroxy-7,8-dimethoxy-3,4-di-hydro-2H-benzo[1,2-b]pyran-2-yl)-ethyl4-quanidinobenzoate hydrochloride] | 340 µM |
| Cc1c(C)c2c(c(C)c1O)CCC(C)(CCOC(=O)c1cccc(NC(=N)N)c1)O2 (centres unmarked) [1 (i), 2-(6-hydroxy-2,5,7,8-tetramethyl-3,4-dihydro-2H-benzo[1,2-b]pyran-2-yl)ethyl3-quanidinobenzoate hydrochloride] | 100 µM |
| Cc1c(C)c2c(c(C)c1O)CCC(C)(CCNC(=O)/C=C/c1ccc(NC(=N)N)cc1)O2 (centres unmarked) [2 (e), N-[2-(6-hydroxy-2,5,7,8-tetramethyl-3,4-dihydro-2H-benzo[1,2-b]pyran-2-yl)-ethyl]4-quanidinocinnam-amide hydrochloride] | 190 µM |
| Cc1c2c(c3ccccc3c1O)OC(C)(CCNC(=O)c1cccc(NC(=N)N)c1)CC2 (centres unmarked) [2 (f), hydrochloride] | 150 µM |
| Cc1c(C)c2c(c(C)c1O)CCC(C)(CCOc1ccc(NC(=N)N)cc1C(F)(F)F)O2 (centres unmarked) [5 (b), 2-trifluoromethyl-4-guanidinophenyl 2-(6-hydroxy-2,5,7,8-tetra-methyl-3,4-dihydro-2H-benzo[1,2-b]pyran-2-yl)ethyl ether hydrochloride] | 74 µM |
| Cc1cc(OCCC2(C)CCc3c(C)c(O)c(C)c(C)c3O2)ccc1NC(=N)N (centres unmarked) [5 (c), 3-methyl-4-guanidino-phenyl 2-(6-hydroxy-2,5,7,8-tetramethyl-3,4-dihydro-2H-benzo[1,2-b]pyran-2-yl)ethyl ether hydrochloride] | 500 µM |
| Cc1c2c(c3ccccc3c1O)OC(C)(CCOc1ccc(NC(=N)N)cc1)CC2 (centres unmarked) [5 (f), 4-guanidinophenyl 2-(2,5-dimethyl-6-hydroxy-3,4-dihydro-2H-naphtho[1,2-b]-pyran-2-yl)ethyl ether hydrochloride] | 22 µM |
| Cc1c(C)c2c(c(C)c1O)CCC(C)(CCOc1ccc(NC(=O)c3cccc(NC(=N)N)c3)cc1)O2 (centres unmarked) [7 (a), N-[4-[2-(6-hydroxy-2,5,7,8-tetramethyl-3,4-dihydro-2H-benzo[1,2-b]pyran-2-yl)-ethoxy]phenyl]-3-guanidino-benzamide hydrochloride] | 200 µM |
| Cc1c(C)c2c(c(C)c1O)CCC(C)(CCOc1ccc(NC(=O)/C=C/c3ccc(NC(=N)N)cc3)cc1C(F)(F)F)O2 (centres unmarked) [7 (c), N-[3-trifluoromethyl-4-[2-(6-hydroxy-2,5,7,8-tetramethyl-3,4-dihydro-2H-benzo[1,2-b]pyran-2-yl)-ethoxy]phenyl]-4-guanidino-cinnamamide hydrochloride] | 4.8 µM |
| CC(=O)Nc1cc(NC(=O)/C=C/c2ccc(NC(=N)N)cc2)ccc1OCCC1(C)CCc2c(C)c(O)c(C)c(C)c2O1 (centres unmarked) [7 (d), N-[3-acetoamide-4-[2-(6-hydroxy-2,5,7,8-tetramethyl-3,4-dihydro-2H-benzo[1,2-b]-pyran-2-yl)ethoxy]phenyl]-4-guanidinocinnamamidehydrochloride] | 48 µM |
| COc1cc(NC(=O)/C=C/c2ccc(NC(=N)N)cc2)ccc1OCCC1(C)CCc2c(C)c(O)c(C)c(C)c2O1 (centres unmarked) [7 (e)] | 30 µM |
| Cc1c(C)c2c(c(C)c1O)CCC(C)(CCCCOc1ccc(NC(=O)c3ccc(NC(=N)N)cc3)cc1)O2 (centres unmarked) [9 (a), N-[4-[4-(6-hydroxy-2,5,7,8-tetramethyl-3,4-dihydro-2H-benzo[1,2-b]pyran-2-yl)-butoxy]phenyl]-4-guanidinobenzamidehydrochloride] | 10 µM |
| Cc1c(C)c2c(c(C)c1O)CCC(C)(CCCCOc1ccc(NC(=O)/C=C/c3ccc(NC(=N)N)cc3)cc1C(F)(F)F)O2 (centres unmarked) [9 (l), N-[4-[4-(6-hydroxy-2,5,7,8-tetramethyl-3,4-dihydro-2H-benzo[1,2-b]pyran-2-yl)-butoxy]-3-trifluoromethyl-phenyl]-4-guanidino-cinnamamide hydrochloride] | 6.6 µM |
| CCOC(=O)c1cc(NC(=N)N)cc(C(=O)Nc2ccc(OCCCCC3(C)CCc4c(C)c(O)c(C)c(C)c4O3)cc2)c1 (centres unmarked) [9 (m), N-[4-[4-(6-hydroxy-2,5,7,8-tetramethyl-3,4-dihydro-2H-benzo[1,2-b]pyran-2-yl)-butoxy]phenyl]-3-guanidino-5-ethoxycarbonylbenzamidehydrochloride] | 9 µM |

Results, then the compound that gave them:

| IC50 | SMILES |
| --- | --- |
| 18 µM | Cc1cc(OCCC2(C)CCc3c(C)c(O)c(C)c(C)c3O2)ccc1NC(=O)/C=C/c1ccc(NC(=N)N)cc1 (centres unmarked) [7 (f), N-[2-methyl-4-[2-(6-hydroxy-2,5,7,8-tetramethyl-3,4-dihydro-2H-benzo[1,2-b]pyran-2-yl)ethoxy]phenyl]-4-guanidinocinnamamidehydrochloride] |
| 19 µM | Cc1c(C)c2c(c(C)c1O)CCC(C)(CCSc1ccc(NC(=O)c3ccc(NC(=N)N)cc3)cc1)O2 (centres unmarked) [7 (h), N-[4-[2-(6-hydroxy-2,5,7,8-tetramethyl-3,4-dihydro-2H-benzo[1,2-b]pyran-2-yl)-ethylthio]phenyl]-4-guanidinobenzamidehydrochloride] |
| 12 µM | Cc1c(C)c2c(c(C)c1O)CCC(C)(CCOc1ccc(NC(=O)c3ccc(NC(=N)N)cc3)cc1C(F)(F)F)O2 (centres unmarked) [7 (k), N-[4-[2-(6-hydroxy-2,5,7,8-tetramethyl-3,4-dihydro-2H-benzo[1,2-b]pyran-2-yl)-ethoxy]-3-trifluoromethyl-phenyl]-4-guanidinobenzamidehydrochloride] |
| 54 µM | Cc1c(C)c2c(c(C)c1O)CCC(C)(CCOc1ccc(NC(=O)COc3ccc(NC(=N)N)cc3)cc1)O2 (centres unmarked) [7 (l), N-[4-[2-(6-hydroxy-2,5,7,8-tetramethyl-3,4-dihydro-2H-benzo[1,2-b]pyran-2-yl)-ethoxy]phenyl]-4-guanidinophenoxyacetamidehydrochloride] |
| 12 µM | Cc1c(C)c2c(c(C)c1O)CCC(C)(CCOc1ccc(NC(=O)c3cccc(NC(=N)N)c3)cc1C(F)(F)F)O2 (centres unmarked) [7 (m), N-[4-[2-(6-hydroxy-2,5,7,8-tetramethyl-3,4-dihydro-2H-benzo[1,2-b]pyran-2-yl)-ethoxy]-3-trifluoromethyl-phenyl]-3-guanidinobenzamidehydrochloride] |
| 10 µM | Cc1c2c(c3ccccc3c1O)OC(C)(CCOc1ccc(NC(=O)/C=C/c3ccc(NC(=N)N)cc3)cc1)CC2 (centres unmarked) [7 (n), N-[4-[2-(2,5-dimethyl-6-hydroxy-3,4-dihydro-2H-naphtho[1,2-b]pyran-2-yl)-ethoxy]phenyl]-4-guanidino-cinnamamide hydrochloride] |
| 17 µM | Cc1c(C)c2c(c(C)c1O)CCC(C)(CCSc1ccc(NC(=O)CSc3ccc(NC(=N)N)cc3)cc1)O2 (centres unmarked) [7 (t), N-[4-[2-(6-hydroxy-2,5,7,8-tetramethyl-3,4-dihydro-2H-benzo[1,2-b]pyran-2-yl)-ethylthio]phenyl]-4-guanidinophenylthioacetamidehydrochloride] |
| 5.4 µM | Cc1c(C)c2c(c(C)c1O)CCC(C)(CCCCSc1ccc(NC(=O)/C=C/c3ccc(NC(=N)N)cc3)cc1)O2 (centres unmarked) [9 (d), N-[4-[4-(6-hydroxy-2,5,7,8-tetramethyl-3,4-dihydro-2H-benzo[1,2-b]pyran-2-yl)-butylthio]phenyl]-4-guanidinocinnamamidehydrochloride] |
| 4.8 µM | Cc1c2c(c3ccccc3c1O)OC(C)(CCCCSc1ccc(NC(=O)c3ccc(NC(=N)N)cc3)cc1)CC2 (centres unmarked) [9 (j), N-[4-[4-(2,5-dimethyl-6-hydroxy-3,4-dihydro-2H-naphtho[1,2-b]pyran-2-yl)-butylthio]phenyl]-4-guanidinobenzamidehydrochloride] |
